Data taken from PubChem BioAssay AID2060910 (Molecular Pharmacology Branch, DTP, NCI, 2025).

System: 242566-281-R-J2-PDC complex spheroid viability
Experiment: Anticancer human tumor 242566-281-R-J2-PDC patient-derived pancreatic carcinoma cell line growth inhibition [RAS]
Conditions: for IC50: curve of first compound; for viability, T/C: stronger effect = lower value; active = viability on the fitted dose curve at most 10% of control; inactive = the rest
Summary of the method: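 Agents were tested in combination matrices in half-log decrements from a top concentration at or near clinical Cmax (10 microM if undetermined). Targets were multi-cell spheroids of tumour lines plus HUVEC and MSC stromal cells.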
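Also: spheroids exposed to compound for 7 days before readout.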
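For viability, T/C in this document: 100% = DMSO vehicle control wells.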

C=CC(=O)Nc1cc(Nc2nccc(-c3cn(C)c4ccccc34)n2)c(OC)cc1N(C)CCN(C)C + CCn1c(-c2cccnc2C(C)OC)c2c3cc(ccc31)N1CCOC(CC(NC(=O)C(C(C)C)N(C)C(=O)C3(F)CCN(C(=O)C#CC(C)(C)N(C)C)CC3)C(=O)N3CCCC(N3)C(=O)OCC(C)(C)C2)C1
754 nM: IC50 (second compound 0.3 µM)
983 nM: IC50 (second compound 0.0949 µM)
inactive: viability, T/C (second compound 0.000949 µM, first compound 0.00316 µM) 87.8% | viability, T/C (second compound 0.000949 µM, first compound 0.01 µM) 107% | viability, T/C (second compound 0.000949 µM, first compound 0.0316 µM) 82.5% | viability, T/C (second compound 0.000949 µM, first compound 0.1 µM) 91% | viability, T/C (second compound 0.000949 µM, first compound 0.316 µM) 86.7% | viability, T/C (second compound 0.000949 µM, first compound 1 µM) 50.3% | viability, T/C (second compound 0.003 µM, first compound 0.00316 µM) 131% | viability, T/C (second compound 0.003 µM, first compound 0.01 µM) 95% | viability, T/C (second compound 0.003 µM, first compound 0.0316 µM) 92.2% | viability, T/C (second compound 0.003 µM, first compound 0.1 µM) 84.3% | viability, T/C (second compound 0.003 µM, first compound 0.316 µM) 89.8% | viability, T/C (second compound 0.003 µM, first compound 1 µM) 47.2% | viability, T/C (second compound 0.00949 µM, first compound 0.00316 µM) 119% | viability, T/C (second compound 0.00949 µM, first compound 0.01 µM) 95.8% | viability, T/C (second compound 0.00949 µM, first compound 0.0316 µM) 82.8% | viability, T/C (second compound 0.00949 µM, first compound 0.1 µM) 102% | viability, T/C (second compound 0.00949 µM, first compound 0.316 µM) 77.4% | viability, T/C (second compound 0.00949 µM, first compound 1 µM) 51.1% | viability, T/C (second compound 0.03 µM, first compound 0.00316 µM) 97.6% | viability, T/C (second compound 0.03 µM, first compound 0.01 µM) 95.3% | viability, T/C (second compound 0.03 µM, first compound 0.0316 µM) 99.1% | viability, T/C (second compound 0.03 µM, first compound 0.1 µM) 93.6% | viability, T/C (second compound 0.03 µM, first compound 0.316 µM) 66% | viability, T/C (second compound 0.03 µM, first compound 1 µM) 52.2% | viability, T/C (second compound 0.0949 µM, first compound 0.00316 µM) 98.5% | viability, T/C (second compound 0.0949 µM, first compound 0.01 µM) 98.7% | viability, T/C (second compound 0.0949 µM, first compound 0.0316 µM) 99.2% | viability, T/C (second compound 0.0949 µM, first compound 0.1 µM) 83.5% | viability, T/C (second compound 0.0949 µM, first compound 0.316 µM) 61.3% | viability, T/C (second compound 0.0949 µM, first compound 1 µM) 49.5% | viability, T/C (second compound 0.3 µM, first compound 0.00316 µM) 94.9% | viability, T/C (second compound 0.3 µM, first compound 0.01 µM) 86.9% | viability, T/C (second compound 0.3 µM, first compound 0.0316 µM) 78% | viability, T/C (second compound 0.3 µM, first compound 0.1 µM) 70.4% | viability, T/C (second compound 0.3 µM, first compound 0.316 µM) 56.5% | viability, T/C (second compound 0.3 µM, first compound 1 µM) 47.8%
> 1000 nM: IC50 (second compound 0.000949 µM) | IC50 (second compound 0.003 µM) | IC50 (second compound 0.00949 µM) | IC50 (second compound 0.03 µM)
